Assay type in all cases: cell-based
One experiment concerns the target T1, human TLR7 (Homo sapiens, UniProt Q9NYK1).
T1 construct: host or cells: HEK-Blue cells (HEK293-derived reporter line)
T1 sequence (Q9NYK1 27-1049): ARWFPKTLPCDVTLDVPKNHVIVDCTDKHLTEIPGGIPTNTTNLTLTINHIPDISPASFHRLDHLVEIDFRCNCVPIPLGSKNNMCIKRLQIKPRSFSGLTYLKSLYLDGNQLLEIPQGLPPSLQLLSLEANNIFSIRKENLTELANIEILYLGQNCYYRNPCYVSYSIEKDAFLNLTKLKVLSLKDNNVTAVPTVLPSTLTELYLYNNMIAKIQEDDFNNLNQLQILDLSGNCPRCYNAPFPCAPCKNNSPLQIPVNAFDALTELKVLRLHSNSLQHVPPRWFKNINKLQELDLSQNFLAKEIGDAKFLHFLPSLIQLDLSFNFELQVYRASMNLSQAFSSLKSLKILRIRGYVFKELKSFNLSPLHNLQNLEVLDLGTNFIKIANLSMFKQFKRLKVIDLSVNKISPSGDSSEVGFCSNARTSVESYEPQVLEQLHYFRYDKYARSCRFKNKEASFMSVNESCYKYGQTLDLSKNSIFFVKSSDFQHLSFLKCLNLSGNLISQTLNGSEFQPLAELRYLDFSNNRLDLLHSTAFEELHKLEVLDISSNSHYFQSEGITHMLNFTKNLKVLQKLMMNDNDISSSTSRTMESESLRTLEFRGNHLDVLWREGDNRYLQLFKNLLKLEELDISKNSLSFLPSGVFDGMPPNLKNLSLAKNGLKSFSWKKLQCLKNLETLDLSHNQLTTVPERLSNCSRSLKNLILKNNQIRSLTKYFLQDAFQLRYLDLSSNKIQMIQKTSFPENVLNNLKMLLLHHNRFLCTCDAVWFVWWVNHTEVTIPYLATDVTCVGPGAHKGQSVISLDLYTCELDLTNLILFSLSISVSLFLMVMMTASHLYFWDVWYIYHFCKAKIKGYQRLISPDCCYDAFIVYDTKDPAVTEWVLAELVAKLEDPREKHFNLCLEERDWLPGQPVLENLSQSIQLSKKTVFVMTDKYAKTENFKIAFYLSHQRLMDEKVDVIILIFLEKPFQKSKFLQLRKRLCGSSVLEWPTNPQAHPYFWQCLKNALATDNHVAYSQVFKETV
The experiment in a line: TLR7 inhibition reporter assay (HEK-Blue cells, SEAP reporter, gardiquimod stimulation). The conditions noted are these: HEK-Blue cells overexpressing human TLR7, SEAP reporter, gardiquimod 7.5 μM. In outline:
(§1)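 Agonists (final): TLR7 gardiquimod 7.5 μM; TLR8 R848 15.9 μM; TLR9 ODN2006 5 nM. HEK-Blue reporter cells, 30 min RT compound pre-incubation, 0.05 nM–50 μM dose range, 22 h at 37 °C, colorimetric SEAP detection medium. % inhibition relative to agonist+DMSO and known-inhibitor wells.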
A general note: In a reporter assay the amount or activity of a reporter protein is the signal.

Another experiment concerns the target T2, human TLR8 (Homo sapiens, UniProt Q9NR97).
T2 construct: host or cells: HEK-Blue cells (HEK293-derived reporter line)
T2 sequence (Q9NR97 27-1041): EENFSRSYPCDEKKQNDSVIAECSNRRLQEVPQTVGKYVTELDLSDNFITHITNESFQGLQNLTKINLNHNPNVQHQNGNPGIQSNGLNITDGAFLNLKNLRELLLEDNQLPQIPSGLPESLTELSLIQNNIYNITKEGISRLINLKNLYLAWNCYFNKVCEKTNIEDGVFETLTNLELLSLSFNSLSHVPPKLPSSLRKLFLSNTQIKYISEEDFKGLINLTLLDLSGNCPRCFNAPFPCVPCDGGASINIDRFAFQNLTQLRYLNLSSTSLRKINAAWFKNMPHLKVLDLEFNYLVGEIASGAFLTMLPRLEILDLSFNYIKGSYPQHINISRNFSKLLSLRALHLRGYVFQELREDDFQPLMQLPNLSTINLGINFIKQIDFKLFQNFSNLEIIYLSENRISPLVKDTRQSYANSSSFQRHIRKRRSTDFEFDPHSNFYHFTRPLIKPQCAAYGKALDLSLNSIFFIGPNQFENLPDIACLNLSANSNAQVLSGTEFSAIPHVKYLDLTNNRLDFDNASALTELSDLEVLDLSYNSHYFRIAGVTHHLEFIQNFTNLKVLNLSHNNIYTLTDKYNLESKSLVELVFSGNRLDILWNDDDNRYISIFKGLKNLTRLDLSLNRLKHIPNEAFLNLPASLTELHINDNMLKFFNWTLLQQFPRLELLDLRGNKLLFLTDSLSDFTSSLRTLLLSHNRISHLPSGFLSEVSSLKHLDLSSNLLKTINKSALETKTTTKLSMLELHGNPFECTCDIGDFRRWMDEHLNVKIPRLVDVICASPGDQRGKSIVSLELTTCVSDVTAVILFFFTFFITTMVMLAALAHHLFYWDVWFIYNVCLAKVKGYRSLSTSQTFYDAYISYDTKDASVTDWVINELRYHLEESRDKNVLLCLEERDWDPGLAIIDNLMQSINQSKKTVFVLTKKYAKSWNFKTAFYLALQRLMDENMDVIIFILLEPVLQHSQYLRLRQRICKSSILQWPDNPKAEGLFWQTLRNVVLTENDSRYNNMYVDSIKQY
The experiment is described as follows: TLR8 inhibition reporter assay (HEK-Blue cells, SEAP reporter, R848 stimulation). As to conditions: HEK-Blue cells overexpressing human TLR8, SEAP reporter, R848 15.9 μM. Summed up:
as §1

Another experiment concerns the target T3, human TLR9 (Homo sapiens, UniProt Q9NR96).
T3 construct: host or cells: HEK-Blue cells (HEK293-derived reporter line)
T3 sequence (Q9NR96 26-1032): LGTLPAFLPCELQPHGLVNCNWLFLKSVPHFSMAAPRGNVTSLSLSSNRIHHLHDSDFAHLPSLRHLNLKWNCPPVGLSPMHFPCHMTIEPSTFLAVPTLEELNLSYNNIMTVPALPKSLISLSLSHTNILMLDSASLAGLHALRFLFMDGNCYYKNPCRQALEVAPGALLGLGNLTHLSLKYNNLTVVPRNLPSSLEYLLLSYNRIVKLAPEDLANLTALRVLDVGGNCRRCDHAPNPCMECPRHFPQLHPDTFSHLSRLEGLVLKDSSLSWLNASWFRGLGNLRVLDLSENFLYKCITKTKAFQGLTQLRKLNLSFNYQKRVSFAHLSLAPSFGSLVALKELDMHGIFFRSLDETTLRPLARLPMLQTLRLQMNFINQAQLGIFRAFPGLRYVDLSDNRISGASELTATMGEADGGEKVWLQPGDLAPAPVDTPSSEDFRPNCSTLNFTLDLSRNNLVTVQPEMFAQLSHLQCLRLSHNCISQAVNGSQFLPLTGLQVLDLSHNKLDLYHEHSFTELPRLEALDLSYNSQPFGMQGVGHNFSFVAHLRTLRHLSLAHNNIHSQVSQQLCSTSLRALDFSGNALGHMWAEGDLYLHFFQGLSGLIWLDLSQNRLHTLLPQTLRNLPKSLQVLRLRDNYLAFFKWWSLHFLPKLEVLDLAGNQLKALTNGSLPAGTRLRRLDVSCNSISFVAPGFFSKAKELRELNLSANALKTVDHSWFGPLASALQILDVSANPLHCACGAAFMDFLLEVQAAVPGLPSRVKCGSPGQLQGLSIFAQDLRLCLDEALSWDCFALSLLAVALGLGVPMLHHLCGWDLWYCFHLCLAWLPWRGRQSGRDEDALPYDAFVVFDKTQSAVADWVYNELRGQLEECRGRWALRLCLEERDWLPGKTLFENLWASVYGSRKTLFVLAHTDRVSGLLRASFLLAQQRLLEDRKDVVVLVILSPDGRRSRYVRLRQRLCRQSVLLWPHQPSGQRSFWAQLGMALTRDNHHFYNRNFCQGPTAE
The experiment is described as follows: TLR9 inhibition reporter assay (HEK-Blue cells, SEAP reporter, ODN2006 stimulation). As to conditions: HEK-Blue cells overexpressing human TLR9, SEAP reporter, ODN2006 5 nM. In outline:
as §1

Some results are limits rather than exact numbers.

The term IC50 denotes the concentration that inhibits the measured activity by half.

Consider `CNC(=O)CN1CCC(c2ccc3[nH]c(-c4cc(C)c5c(cnn5C)c4)c(C(C)C)c3c2)CC1` [Example 364, 2-(4-(2-(1,7-dimethyl-1H-indazol-5-yl)-3-isopropyl-1H-indol-5-yl)piperidin-1-yl)-N-methylacetamide], for which the IC50 against human TLR7 is 100 to 1000 nM; at human TLR8, over 3130 nM; against human TLR9, 1000 to 50000 nM.
The corresponding values for `CC(C)c1c(-c2cn(C)c3ncccc23)[nH]c2ccc(C3CCN(CC(=O)N4CCOCC4)CC3)cc12` [Example 294, 2-(4-(3-isopropyl-2-(1-methyl-1H-pyrrolo[2,3-b]pyridin-3-yl)-1H-indol-5-yl)piperidin-1-yl)-1-morpholinoethan-1-one] are under 100 nM, under 100 nM and 1000 to 50000 nM.
The corresponding values for `COc1cc2[nH]c(-c3ccnc4[nH]ncc34)c(C(C)C)c2cc1C1CCNCC1` [Example 255, 4-(3-isopropyl-6-methoxy-5-(piperidin-4-yl)-1H-indol-2-yl)-1H-pyrazolo[3,4-b]pyridine] are under 100 nM, 100 to 1000 nM and 1000 to 50000 nM.
Regarding `CNCCN1CCC(c2ccc3[nH]c(-c4ccc5scnc5c4)c(C)c3c2)CC1` [compound 659], the IC50 against human TLR7 was 1000 to 50000 nM; on human TLR8, over 3130 nM; against human TLR9, 100 to 1000 nM.
As to `Cc1cc(-c2[nH]c3ccc(C4CCN(CC(N)=O)CC4)cc3c2C(C)C)cn2nnnc12` [Example 311, 2-(4-(3-isopropyl-2-(8-methyltetrazolo[1,5-a]pyridin-6-yl)-1H-indol-5-yl)piperidin-1-yl) acetamide], the concentration for half-maximal inhibition (IC50) on human TLR7 is under 100 nM; on human TLR8, under 100 nM; against human TLR9, 1000 to 50000 nM.
Regarding `Cc1cc(-c2[nH]c3ccc(C4CCN(CC(C)(C)O)CC4)cc3c2C(C)C)cc2cccnc12` [Example 771, 1-(4-(3-isopropyl-2-(8-methylquinolin-6-yl)-1H-indol-5-yl)piperidin-1-yl)-2-methylpropan-2-ol], the results for the IC50 on human TLR7, at human TLR8 and on human TLR9 were under 100 nM, under 100 nM and 1000 to 50000 nM, respectively.
Regarding `CC(C)c1c(-c2ccnc3[nH]ncc23)[nH]c2ccc(C3CCN(CCN)CC3)cc12` [Example 655, 2-(4-(3-isopropyl-2-(1H-pyrazolo[3,4-b]pyridin-4-yl)-1H-indol-5-yl)piperidin-1-yl)ethan-1-amine], the IC50 at human TLR7 was under 100 nM; at human TLR8, under 100 nM; at human TLR9, 100 to 1000 nM.
Consider `Cc1cc2cc(-c3[nH]c4ccc(C5CCN(C6COC6)CC5)cc4c3C(C)C)cc(CC(C)C)n2n1` [Example 716, 7-isobutyl-5-(3-isopropyl-5-(1-(oxetan-3-yl)piperidin-4-yl)-1H-indol-2-yl)-2-methylpyrazolo[1,5-a]pyridine], for which the half-inhibitory concentration (IC50) was over 3130 nM against human TLR7, over 3130 nM against human TLR8 and 1000 to 50000 nM against human TLR9.
On to `Cc1cc(-c2[nH]c3ccc(C4CCN(C(=O)CCN5CC6(COC6)C5)CC4)cc3c2C(C)C)cn2nnnc12` [Example 631, 1-(4-(3-isopropyl-2-(8-methyltetrazolo[1,5-a]pyridin-6-yl)-1H-indol-5-yl)piperidin-1-yl)-3-(2-oxa-6-azaspiro[3.3]heptan-6-yl)propan-1-one], for which the half-inhibitory concentration (IC50) on human TLR7 was under 100 nM; against human TLR8, under 100 nM; on human TLR9 it was 100 to 1000 nM.
Turning to `CC(C)c1c(-c2ccnc3[nH]ccc23)[nH]c2ccc(C3CCNCC3)cc12` [Example 1, 4-(3-isopropyl-5-(piperidin-4-yl)-1H-indol-2-yl)-1H-pyrrolo[2,3-b]pyridine], the IC50 on human TLR7 is under 100 nM; against human TLR8 it was under 100 nM; against human TLR9, 1000 to 50000 nM.
As for `COCC(CO)N1CCC(c2ccc3[nH]c(-c4cc(C)n5ccnc5c4)c(C(C)C)c3c2)CC1` (stereo not drawn) [Example 754, 2-(4-(3-isopropyl-2-(5-methylimidazo[1,2-a]pyridin-7-yl)-1H-indol-5-yl)piperidin-1-yl)-3-methoxypropan-1-ol], the 50% inhibitory concentration (IC50) lay in the range of 1000 to 50000 nM against human TLR7, 100 to 1000 nM at human TLR8 and 100 to 1000 nM against human TLR9.
For `CC(C)c1c(-c2ccnc3[nH]ncc23)[nH]c2ccc(C3CCN(C(=O)CCC(=O)N(C)C)CC3)cc12` [Example 613, 4-(4-(3-isopropyl-2-(1H-pyrazolo[3,4-b]pyridin-4-yl)-1H-indol-5-yl)piperidin-1-yl)-N,N-dimethyl-4-oxobutanamide], the values for the IC50 against human TLR7, against human TLR8 and at human TLR9 were 100 to 1000 nM, 100 to 1000 nM and over 50000 nM, respectively.
For `Cc1nnn2ccc(-c3[nH]c4ccc(C5CCN(CC(=O)N(C)C)CC5)cc4c3C(C)C)cc12` [Example 318, 2-(4-(3-isopropyl-2-(3-methyl-[1,2,3]triazolo[1,5-a]pyridin-5-yl)-1H-indol-5-yl)piperidin-1-yl)-N,N-dimethylacetamide], the results for the IC50 on human TLR7, at human TLR8 and against human TLR9 were under 100 nM, under 100 nM and 1000 to 50000 nM, respectively.

For the origin of these results see patent publication US11739098B2 (BRISTOL-MYERS SQUIBB COMPANY, priority 2017, dated 2023).
